Reference: patent US20010034357A1, “Substituted pyridine compounds useful for controlling chemical synaptic transmission” (priority 2000, published 2001)

Experiments:
[1] = system: mouse hot plate paradigm; assay: mouse hot plate paradigm (analgesia, latency until tenth jump); assay type: in vivo; settings: mice, intraperitoneal, dosed 30 minutes prior to testing, hot plate 55° C.; for Analgesic MED (μmol/kg): footnote symbols for no effect; for Analgesic MED: minimally effective dose among the doses tested
Experimental: An in vivo protocol was utilized to determine the effectiveness of nicotinic acetylcholine receptor ligands as analgesic agents in the mouse hot plate paradigm.
Separate groups of mice, (n=8/group) were utilized for each dose group. All drugs were administered by the intraperitoneal route of administration. Test drugs were dissolved in water to make a 6.2 mM stock solution. Animals were dosed with this solution (10 mL/kg body weight) for a 62 micromol/kg dose. Lower doses were administered similarly, following serial dilution of the stock solution in half-log increments. Animals were dosed 30 minutes prior to testing in the hot plate. The hot-plate utilized was an automated analgesia monitor (Model #AHP16AN, Omnitech Electronics, Inc. of Columbus, Ohio). The temperature of the hot plate was maintained at 55° C. and a cut-off time of 180 seconds was utilized. A control was run against each compound tested. Latency until the tenth jump was recorded as the dependent measure. An increase in the tenth jump latency relative to the control was considered a significant effect.

[2] = target: T1, neuronal nicotinic acetylcholine receptors (Rattus norvegicus, UniProt P09483+P12390); assay: [3H]-cytisine binding to neuronal nicotinic acetylcholine receptors, crude synaptic membranes from whole rat brain; settings: [3H]-CYT 1.25 nM, whole rat brain membranes, 60 minutes at 4° C.; Cheng and Prusoff correction; Table 1; read-out: Ki
T1 construct: crude synaptic membrane preparations from whole rat brain; from tissue; host or cells: whole rat brain, crude synaptic membranes
T1 sequence (P09483 31-630): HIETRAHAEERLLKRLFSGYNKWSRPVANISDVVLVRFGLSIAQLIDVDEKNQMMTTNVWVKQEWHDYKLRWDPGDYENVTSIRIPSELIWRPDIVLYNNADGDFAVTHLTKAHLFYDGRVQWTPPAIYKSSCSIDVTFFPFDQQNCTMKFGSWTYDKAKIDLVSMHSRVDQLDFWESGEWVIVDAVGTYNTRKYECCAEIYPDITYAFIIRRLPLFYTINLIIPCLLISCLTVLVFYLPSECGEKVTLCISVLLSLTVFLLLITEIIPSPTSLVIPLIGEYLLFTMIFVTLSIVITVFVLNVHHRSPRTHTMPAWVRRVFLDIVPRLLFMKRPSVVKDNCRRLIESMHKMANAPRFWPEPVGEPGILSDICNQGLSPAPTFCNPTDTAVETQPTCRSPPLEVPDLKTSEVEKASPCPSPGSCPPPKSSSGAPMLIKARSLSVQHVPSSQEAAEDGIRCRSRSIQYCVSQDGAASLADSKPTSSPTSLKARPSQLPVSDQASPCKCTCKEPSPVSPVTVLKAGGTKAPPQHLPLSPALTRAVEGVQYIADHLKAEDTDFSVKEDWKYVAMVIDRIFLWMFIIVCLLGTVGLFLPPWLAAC
T1 sequence (P12390 25-500): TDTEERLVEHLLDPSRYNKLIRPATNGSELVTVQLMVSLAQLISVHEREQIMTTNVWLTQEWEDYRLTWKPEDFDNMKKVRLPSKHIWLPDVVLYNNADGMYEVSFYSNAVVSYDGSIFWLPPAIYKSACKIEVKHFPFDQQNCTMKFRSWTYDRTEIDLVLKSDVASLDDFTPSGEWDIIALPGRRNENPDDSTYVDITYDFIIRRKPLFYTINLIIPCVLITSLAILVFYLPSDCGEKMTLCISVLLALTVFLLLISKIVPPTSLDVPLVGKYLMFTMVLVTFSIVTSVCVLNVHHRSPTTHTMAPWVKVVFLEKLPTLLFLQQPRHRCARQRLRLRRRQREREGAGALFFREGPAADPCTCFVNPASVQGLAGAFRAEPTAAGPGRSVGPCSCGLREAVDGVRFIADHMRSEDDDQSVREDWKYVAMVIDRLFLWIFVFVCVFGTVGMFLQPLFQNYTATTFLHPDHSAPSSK
Experimental: The in vitro protocols for determination of nicotinic acetylcholine channel receptor binding potencies of ligands was determined as follows.
Binding of [^3H]-cytisine ([^3H]-CYT) to neuronal nicotinic acetylcholine receptors was accomplished using crude synaptic membrane preparations from whole rat brain (Pabreza et al., Molecular Pharmacol., 1990, 39:9). Washed membranes were stored at −80° C. prior to use. Frozen aliquots were slowly thawed and resuspended in 20 volumes of buffer (containing: 120 mM NaCl, 5 mM KCl, 2 mM MgCl2, 2 mM CaCl2 and 50 mM Tris-Cl, pH 7.4 @4° C.). After centrifuging at 20,000×g for 15 minutes, the pellets were resuspended in 30 volumes of buffer.
The test compounds were dissolved in water to make 10 mM stock solutions. Each solution was then diluted (1:100) with buffer (as above) and further taken through seven serial log dilutions to produce test solutions from 10^−5 to 10^−11 M.
Homogenate (containing 125-150 µg protein) was added to triplicate tubes containing the range of concentrations of test compound described above and [^3H]-CYT (1.25 nM) in a final volume of 500 μL. Samples were incubated for 60 minutes at 4° C., then rapidly filtered through Whatman GF/B filters presoaked in 0.5% polyethyleneimine using 3×4 mL of ice-cold buffer. The filters are counted in 4 mL of Ecolume® (ICN). Nonspecific binding was determined in the presence of 10 μM (−)-nicotine and values were expressed as a percentage of total binding. IC50 values were determined with a four-parameter non-linear regression and IC50 values were converted to K1 values using the Cheng and Prusoff correction (K1=IC50/(1+[ligand]/Kd of ligand).
Each Example number corresponds to the synthetic Examples described above. […] The lower the Ki value, the more affinity for neuronal nicotinic acetylcholine receptors.

| Structure (SMILES) | Analgesic MED (μmol/kg) [1] | Ki [2] [nM] | melting point [°C] | Analgesic MED [1] [µmol/kg] |
| --- | --- | --- | --- | --- |
| CC(COc1cnc(Cl)c(C=Cc2ccncc2)c1)N(C)C (single isomer, unassigned) [Example 14] | * (no effect at 62) | 0.367 | 79 to 81 |  |
| CC(COc1cnc(Cl)c(C=Cc2ccncc2)c1)N(C)C (single isomer, unassigned) [Example 39] | * (no effect at 62) | 0.103 | 81 to 83 |  |
| C[C@@H](N)COc1ccc(F)nc1.Cc1ccc(S(=O)(=O)O)cc1 [Example 29, 5-[(R)-2-amino-1-propyloxy]-2-fluoro pyridine p-toluenesulfonic acid] |  | 6.6 |  | 62 |
| Cc1cc(OC[C@@H](C)N(C)C)cnc1Cl.Cc1ccc(S(=O)(=O)O)cc1 [Example 36, 5-[(R)-2-dimethylamino-1-propyloxy]-2-chloro-3-methyl pyridine p-toluenesulfonic acid] | * (no effect at 62) | 7.2 |  |  |
| CN(C)[C@H](COc1cnc(Cl)c(C=Cc2ccncc2)c1)Cc1ccccc1 [Example 24, 5-[(S)-2-N-dimethyl-amino-3-phenyl-1-propyloxy]-2-chloro-3-(4-vinylpyridinyl) pyridine di-p-toluenesulfonic acid] | * (no effect at 62) | 4.63 | 81 to 83 |  |
| C[C@H](COc1ccc(F)nc1)N(C)C.Cc1ccc(S(=O)(=O)O)cc1 [Example 30, 5-[(R)-2-dimethylamino-1-propyloxy]-2-fluoro pyridine p-toluenesulfonic acid] | * (no effect at 62) | 70.2 |  |  |
| CN[C@@H](C)COc1ccc(Cl)nc1.Cc1ccc(S(=O)(=O)O)cc1 [Example 3, 5-[(S)-2-methylamino-1-propyloxy]-2-chloro pyridine p-toluenesulfonic acid] |  | 40.6 |  | 62 |
| CN[C@@H](C)COc1cnc(Cl)c(C)c1.Cc1ccc(S(=O)(=O)O)cc1 [Example 12, 5-[(S)-2-methylamino-1-propyloxy]-2-chloro-3-methyl pyridine p-toluenesulfonic acid] |  | 5.47 |  | 62 |
| CN[C@H](C)COc1ccc(Cl)nc1.Cc1ccc(S(=O)(=O)O)cc1 [Example 28, 5-[(R)-2-methylamino-1-propyloxy]-2-chloropyridine p-toluenesulfonic acid] |  | 5.87 |  | 62 |
| CC[C@@H](COc1cnc(Cl)c(C=Cc2ccncc2)c1)N(C)C [Example 20, 5-[(S)-2-N-dimethylamino-1-butyloxy]-2-chloro-3-(4-vinylpyridinyl) pyridine di-p-toluenesulfonic acid] |  | 3.61 | 73 to 75 |  |
| C[C@@H](N)COc1cnc(Cl)c(Br)c1.Cc1ccc(S(=O)(=O)O)cc1 [Example 32, 5-[(R)-2-amino-1-propyloxy]-2-chloro-3-bromo pyridine p-toluenesulfonic acid] |  | 1.54 |  | 62 |
| C[C@H](N)COc1ccc(Cl)nc1.Cc1ccc(S(=O)(=O)O)cc1 [Example 1, 5-[(S)-2-amino-1-propyloxy]-2-chloro pyridine p-toluenesulfonic acid] |  | 4.51 |  | 62 |
| C[C@@H](COc1ccc(F)nc1)N(C)C.Cc1ccc(S(=O)(=O)O)cc1 [Example 5, 5-[(S)-2-dimethylamino-1-propyloxy]-2-fluoro pyridine p-toluenesulfonic acid] | * (no effect at 62) | 100 |  |  |
| C[C@H](N)COc1cnc(Cl)c(Br)c1.Cc1ccc(S(=O)(=O)O)cc1 [Example 7, 5-[(S)-2-amino-1-propyloxy]-2-chloro-3-bromo pyridine p-toluenesulfonic acid] | * (no effect at 62) | 1.55 |  |  |
| CN[C@H](C)COc1ccc(F)nc1.Cc1ccc(S(=O)(=O)O)cc1 [Example 31, 5-[(R)-2-methylamino-1-propyloxy]-2-fluoro pyridine p-toluenesulfonic acid] |  | 11.4 |  | 62 |
